In PubChem BioAssay (NCI):
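Dose response: 5 concentrations. Exposure: 48 h. Format: 96-well plates. Endpoint: linear interpolation; highest concentration if not reached. GI50 = concentration required for 50% inhibition of growth. TGI: concentration producing complete growth inhibition.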

Tests used:
Test in all cases: NCI-60 cell line screen, 48 h
786-0 renal = test system: 786-0 renal
A498 renal = test system: A498 renal
A549 NSCLC = test system: A549 NSCLC
ACHN renal = test system: ACHN renal
BT-549 breast = test system: BT-549 breast
CAKI-1 renal = test system: CAKI-1 renal
CCRF-CEM leukemia = test system: CCRF-CEM leukemia
COLO 205 colon = test system: COLO 205 colon
DU-145 prostate = test system: DU-145 prostate
EKVX NSCLC = test system: EKVX NSCLC
HCC-2998 colon = test system: HCC-2998 colon
HCT-116 colon = test system: HCT-116 colon
HCT-15 colon = test system: HCT-15 colon
HL-60(TB) leukemia = test system: HL-60(TB) leukemia
HOP-62 NSCLC = test system: HOP-62 NSCLC
HOP-92 NSCLC = test system: HOP-92 NSCLC
HS 578T breast = test system: HS 578T breast
HT29 colon = test system: HT29 colon
IGROV1 ovarian = test system: IGROV1 ovarian
K-562 leukemia = test system: K-562 leukemia
KM12 colon = test system: KM12 colon
LOX IMVI melanoma = test system: LOX IMVI melanoma
M14 melanoma = test system: M14 melanoma
MCF7 breast = test system: MCF7 breast
MDA-MB-231 breast = test system: MDA-MB-231 breast
MDA-MB-435 = test system: MDA-MB-435
MOLT-4 leukemia = test system: MOLT-4 leukemia
NCI-H226 lung = test system: NCI-H226 lung
NCI-H23 lung = test system: NCI-H23 lung
NCI-H460 lung = test system: NCI-H460 lung
NCI-H522 lung = test system: NCI-H522 lung
NCI/ADR-RES ovarian = test system: NCI/ADR-RES ovarian
OVCAR-3 ovarian = test system: OVCAR-3 ovarian
OVCAR-4 ovarian = test system: OVCAR-4 ovarian
OVCAR-5 ovarian = test system: OVCAR-5 ovarian
OVCAR-8 ovarian = test system: OVCAR-8 ovarian
PC-3 prostate = test system: PC-3 prostate
RPMI-8226 leukemia = test system: RPMI-8226 leukemia
RXF 393 renal = test system: RXF 393 renal
SF-268 CNS = test system: SF-268 CNS
SF-295 CNS = test system: SF-295 CNS
SF-539 CNS = test system: SF-539 CNS
SK-MEL-2 melanoma = test system: SK-MEL-2 melanoma
SK-MEL-28 melanoma = test system: SK-MEL-28 melanoma
SK-MEL-5 melanoma = test system: SK-MEL-5 melanoma
SK-OV-3 ovarian = test system: SK-OV-3 ovarian
SN12C renal = test system: SN12C renal
SNB-19 CNS = test system: SNB-19 CNS
SNB-75 CNS = test system: SNB-75 CNS
SR leukemia = test system: SR leukemia
SW-620 colon = test system: SW-620 colon
T-47D breast = test system: T-47D breast
TK-10 renal = test system: TK-10 renal
U251 CNS = test system: U251 CNS
UACC-257 melanoma = test system: UACC-257 melanoma
UACC-62 melanoma = test system: UACC-62 melanoma
UO-31 renal = test system: UO-31 renal

`CCNc1nc(O)c(/C=C2\C=Nc3ncccc32)s1` gave a GI50 (786-0 renal) of 2.71 µM, a TGI (786-0 renal) greater than 100 µM and a GI50 (A498 renal) of 2.12 µM. The TGI (A498 renal) was 6.15 µM, the GI50 (A549 NSCLC) was 16.5 µM and the TGI (A549 NSCLC) was greater than 100 µM. For the same compound, the GI50 (ACHN renal) was 2.58 µM, the TGI (ACHN renal) was greater than 100 µM and the GI50 (BT-549 breast) was 1.66 µM. The TGI (BT-549 breast) was 5.17 µM, the GI50 (CAKI-1 renal) was 3.66 µM and the TGI (CAKI-1 renal) was greater than 100 µM. It also gave a GI50 (CCRF-CEM leukemia) of 3.59 µM, a TGI (CCRF-CEM leukemia) greater than 100 µM and a GI50 (COLO 205 colon) of 3.54 µM. For the same compound, the TGI (COLO 205 colon) was 13 µM, the GI50 (DU-145 prostate) was 3.25 µM and the TGI (DU-145 prostate) was 47.4 µM. The GI50 (EKVX NSCLC) was 16.6 µM, the TGI (EKVX NSCLC) was greater than 100 µM and the GI50 (HCC-2998 colon) was 4.92 µM. The TGI (HCC-2998 colon) was 36.7 µM, the GI50 (HCT-116 colon) was 2.5 µM and the TGI (HCT-116 colon) was greater than 100 µM. The GI50 (HCT-15 colon) was 5.18 µM, the TGI (HCT-15 colon) was greater than 100 µM and the GI50 (HL-60(TB) leukemia) was 2.53 µM. The TGI (HL-60(TB) leukemia) was 10.2 µM, the GI50 (HOP-62 NSCLC) was 2.27 µM and the TGI (HOP-62 NSCLC) was 7.27 µM. It also gave a GI50 (HOP-92 NSCLC) of 1.08 µM, a TGI (HOP-92 NSCLC) greater than 100 µM and a GI50 (HS 578T breast) of 2.95 µM. It also gave a TGI (HS 578T breast) of 8.29 µM, a GI50 (HT29 colon) of 4.44 µM and a TGI (HT29 colon) greater than 100 µM. It also gave a GI50 (IGROV1 ovarian) of 4.66 µM, a TGI (IGROV1 ovarian) greater than 100 µM and a GI50 (K-562 leukemia) of 10 µM. For the same compound, the TGI (K-562 leukemia) was greater than 100 µM, the GI50 (KM12 colon) was 3.05 µM and the TGI (KM12 colon) was 12.4 µM. It also gave a GI50 (LOX IMVI melanoma) of 3.23 µM, a TGI (LOX IMVI melanoma) of 47.5 µM and a GI50 (M14 melanoma) of 4.45 µM. For the same compound, the TGI (M14 melanoma) was 26.9 µM, the GI50 (MCF7 breast) was 2.55 µM and the TGI (MCF7 breast) was greater than 100 µM. The GI50 (MDA-MB-231 breast) was 4.17 µM, the TGI (MDA-MB-231 breast) was greater than 100 µM and the GI50 (MDA-MB-435) was 3.49 µM. It also gave a TGI (MDA-MB-435) of 14.9 µM, a GI50 (MOLT-4 leukemia) of 3.21 µM and a TGI (MOLT-4 leukemia) of 12.6 µM. The GI50 (NCI-H226 lung) was 2.83 µM, the TGI (NCI-H226 lung) was 28.7 µM and the GI50 (NCI-H23 lung) was 2.57 µM. It also gave a TGI (NCI-H23 lung) of 11.5 µM, a GI50 (NCI-H460 lung) of 3.93 µM and a TGI (NCI-H460 lung) of 17.8 µM. It also gave a GI50 (NCI-H522 lung) of 1.25 µM, a TGI (NCI-H522 lung) of 8.83 µM and a GI50 (NCI/ADR-RES ovarian) of 10.5 µM. It also gave a TGI (NCI/ADR-RES ovarian) greater than 100 µM, a GI50 (OVCAR-3 ovarian) of 2.66 µM and a TGI (OVCAR-3 ovarian) of 8.49 µM. The GI50 (OVCAR-4 ovarian) was 3.08 µM, the TGI (OVCAR-4 ovarian) was greater than 100 µM and the GI50 (OVCAR-5 ovarian) was 2.37 µM. It also gave a TGI (OVCAR-5 ovarian) greater than 100 µM, a GI50 (OVCAR-8 ovarian) of 3.27 µM and a TGI (OVCAR-8 ovarian) greater than 100 µM. The GI50 (PC-3 prostate) was 4.04 µM, the TGI (PC-3 prostate) was greater than 100 µM and the GI50 (RPMI-8226 leukemia) was 11.7 µM. It also gave a TGI (RPMI-8226 leukemia) of 68 µM, a GI50 (RXF 393 renal) of 2.05 µM and a TGI (RXF 393 renal) of 4.29 µM. The GI50 (SF-268 CNS) was 2.3 µM, the TGI (SF-268 CNS) was 7.85 µM and the GI50 (SF-295 CNS) was 3.45 µM. It also gave a TGI (SF-295 CNS) greater than 100 µM, a GI50 (SF-539 CNS) of 1.51 µM and a TGI (SF-539 CNS) of 3.7 µM. For the same compound, the GI50 (SK-MEL-2 melanoma) was 3.04 µM, the TGI (SK-MEL-2 melanoma) was 8.93 µM and the GI50 (SK-MEL-28 melanoma) was 2.72 µM. For the same compound, the TGI (SK-MEL-28 melanoma) was 13.8 µM, the GI50 (SK-MEL-5 melanoma) was 3 µM and the TGI (SK-MEL-5 melanoma) was 9.47 µM. It also gave a GI50 (SK-OV-3 ovarian) of 2.86 µM, a TGI (SK-OV-3 ovarian) of 9.12 µM and a GI50 (SN12C renal) of 3.58 µM. For the same compound, the TGI (SN12C renal) was 37.5 µM, the GI50 (SNB-19 CNS) was 3.6 µM and the TGI (SNB-19 CNS) was greater than 100 µM. For the same compound, the GI50 (SNB-75 CNS) was 1.92 µM, the TGI (SNB-75 CNS) was 4.25 µM and the GI50 (SR leukemia) was 1.6 µM. It also gave a TGI (SR leukemia) greater than 100 µM, a GI50 (SW-620 colon) of 3.42 µM and a TGI (SW-620 colon) of 27.1 µM. It also gave a GI50 (T-47D breast) of 2.02 µM, a TGI (T-47D breast) of 7.62 µM and a GI50 (TK-10 renal) of 2.78 µM. It also gave a TGI (TK-10 renal) of 95 µM, a GI50 (U251 CNS) of 2.6 µM and a TGI (U251 CNS) of 8.24 µM. It also gave a GI50 (UACC-257 melanoma) of 4.17 µM, a TGI (UACC-257 melanoma) of 15.5 µM and a GI50 (UACC-62 melanoma) of 3.01 µM. It also gave a TGI (UACC-62 melanoma) of 9.11 µM, a GI50 (UO-31 renal) of 3.44 µM and a TGI (UO-31 renal) greater than 100 µM.
